According to patent US20220218659A1, “PI3K/LYN-ACLY Signaling Inhibition” (Institute For Cancer Research d/b/a The Research Institute …, priority 2019, published 2022):
No end group written: not given here. *: point of attachment. Biotin = O=C1N[C@H]2[C@H](CS[C@H]2CCCCC(=O)*)N1

Legend:
[1] = system: Histone H3 acetylation (H3K9ac); assay: Histone H3 (H3K9) acetylation by Western blot in HL-60 cells; type: cell-based; details: 16 hours, 10% FBS in RPMI
Protocol: Therefore, to evaluate the link between PI3K/Lyn and ACLY-mediated pathways in AML, HL-60 AML cell line were also used, in addition to primary patient-derived AML cells. HL-60 cell line was from American Type Culture Collection (ATCC). It was decided to use this particular HL-60 cell line for consistency herein since HL-60 cells express the active NRAS oncoprotein, similarly like the patient-derived AML cells (FIG. 7 and FIG. 8). HL-60 AML cell line was grown in RPMI 1640 medium supplemented with 10% fetal bovine serum, 2 mM 1-glutamine and 1% penicillin-streptomycin and maintained at 37° C. and 5% CO2. Cells were treated with the Lyn inhibitor (100 nM-1000 nM Bafetinib) or PI3K inhibitors (500 nM-2.5 μM LY294002 or 100 nM-2.0 μM BKM120) or vehicle (0.1% DMSO) in the presence of 10% FBS in RPMI media for 16 hours for Acetyl CoA measurement, phospholipid and histone acetylation analysis.
HL-60 cell line was seeded at a concentration of 1×10^6/ml in 10 ml media onto 40 ml culture-flask and cultured for 16 hours in the presence of indicated concentration of LYN or PI3K inhibitors or DMSO (0.1% dimethyl sulfoxide). Cells were harvested and lysed in 1 ml of ice-cold Pierce IP lysis buffer (Pierce Inc.) in the presence of Proteinase and phosphatase inhibitor cocktail (Thermofisher) and sonicated for 20 seconds. Lysates were cleared by centrifugation at 12000 rpm in cold conditions on bench top centrifuge, and the supernatant was used for protein determination by BCA assay kit (Pierce Inc). Equivalent amounts of protein lysate were mixed with sodium dodecylsulfate (2×SDS) and boiled for 8 minutes. Samples were resolved by 4-12% gradient sodium dodecylsulfate-polyacrylamide gel electrophoresis (NOVEX; Invitrogen) and blotted onto nitrocellulose filters. Membranes were blocked for 1 hour in 0.1% Tween-20 and 5% bovine serum albumin. Primary antibodies for H3K9ac, histone H3, Lyn, ACLY and GAPDH were added to 5% BSA at concentrations provided by the vendor's instructions and incubated with membranes overnight at 4° C. before removing by washing. […]

Acetyl-CoA = Acetyl-CoA measurement in HL-60 cells; type: cell-based; details: 16 hours
Protocol: HL-60 cells were cultured as above, treated with Bafetinib (500 nM), PI3K inhibitors (1 μM) for 16 hours. After treatment, cells were washed with medium and harvested for acetyl-CoA extraction from 5×10^6 cells per condition in triplicate, acetyl-CoA levels were measured using Pico-Probe Acetyl-CoA Fluorometric Assay kit (BioVision, Milpitas, Calif.) following the manufacturer's instructions.

ACLY binding to PIP2 = assay: Phospho-ACLY bound to PIP2 (PIP2 immunoprecipitation and western blotting) in transfected HEK293T cells; type: cell-based, human; details: ACLY-HA with active SRC kinase, 2 μM, 15 hours
PI/PIP/PIP2 = assay: Lipidomic analysis of PI, PIP and PIP2 in HL-60 cells; type: cell-based; details: 16 hours, 10% FBS in RPMI
Protocol: Phosphoinositides from HL60 cells treated with PI3K and Lyn inhibitors were compared with those from control cells (0.1% DMSO in culture medium). HL60 cells were treated with PI3K inhibitors LY294002, BKM120 or the Lyn inhibitor Bafetinib for 16 hours followed by TCA precipitation and freezing at −80° C. TCA precipitates were spiked with 20 ng of two internal standards (PIP 37:4; PIP2 37:4) and subjected to lipid extraction as described below and analyzed via LC/MS/MS. TMS-diazomethane derivatized phospholipids including phosphatidyl inositol (PI), phosphatidylinositol phosphate (PIP) and phosphatidylinositol bisphosphate (PIP2) values were measured using UPLC/MS/MS MRM Mass Spectrometry. […] Phosphatidylinositol trisphosphate (PIP3) was also measured but levels were too low in these cells to be analyzed. The endogenous PIP3 is several orders of magnitude less abundant than PIP2 in cells. It is well established that the basal PIP3 level is often undetectable in cells due to its low quantity and short halflife. […]
UPLC/MS: Dried, methylated cell extracts were suspended in 100 μl 100% methanol (LC-MS Optima grade, Fisher) prior to chromatographic separation and MS/MS. […] The effluent was monitored by a Waters XEVO TQ-S MS/MS in multiple reaction monitoring (MRM) in positive ion mode. […]

HL-60 AML cells = assay: MTT assay, growth of HL-60 AML cells; type: cell-based; details: within 72 hours
Protocol: HL-60 cells were treated with various concentrations of Bafetinib (Lyn kinase), BKM120 (PI3K) and BMS 303141 (ACLY) inhibitors in the presence of 10% RPMI media for 72 hours. The growth-inhibitory effect was examined using a […] assay (MTT; Sigma-Aldrich) as per the instructions of the manufactured kit. The experiment was performed in triplicate.

[2] = ACLY peptide binding on PIP specificity plates; details: PIP specificity plate, 20 pmols phosphoinositide per well, peptide 1.0 μg/ml
Protocol: ACLY peptides: Based on PIP2 binding motif analysis on ACLY using full length protein sequence, two PIP2 binding domains were predicted. The ACLY peptide-1 in the ATP-grasp domain sequence (peptide-1: […]; SEQ ID NO:15) and the ACLY peptide-2, in the CoA-binding domain sequence (peptide-2: […]; SEQ ID NO:5). N-terminally biotinylated peptides were synthesized (Genscript, Inc). ACLY-PIP specificity binding assay was performed using the N-terminally biotinylated peptides at 1.0 μg/ml concentration in 1% goat serum in Tris buffer saline (TB S) and the Cova PIP Specificity plate H-6300 (Echelon Biosciences) according to manufactures instructions. In brief, ACLY peptide-1 and peptide-2 at final concentration of 1.0 μg/ml in 100 μl volume were incubated for overnight at 4° C. After three washes with TBST buffer, the wells were incubated with 100 μl of HRP-conjugated Biotin antibody, followed by three washes. The bound peptides were detected with Super-Signal ELISA-Pico chemiluminescent substrate kit from ThermoFisher and reading the absorbance at 450 nm for 3-30 minutes.

Nc1cc(C(F)(F)F)c(-c2cc(N3CCOCC3)nc(N3CCOCC3)n2)cn1 [BKM120, Buparlisib]
Histone H3 acetylation blocked (densitometric analysis) [1]: 97%
synthesis of Acetyl-CoA (Acetyl-CoA): significantly prevented
phospho-ACLY bound to PIP2 versus DMSO (ACLY binding to PIP2): significant difference
levels of total PI/PIP/PIP2 compared to DMSO control (PI/PIP/PIP2): overall decrease

COc1ccc(-c2ccccc2)cc1NS(=O)(=O)c1cc(Cl)cc(Cl)c1O [BMS303141]
IC50 (HL-60 AML cells): 10 to 20 µM

Cc1ccc(NC(=O)c2ccc(CN3CC[C@H](N(C)C)C3)c(C(F)(F)F)c2)cc1Nc1nccc(-c2cncnc2)n1 [Bafetinib]
Histone H3 acetylation blocked (densitometric analysis) [1]: 90%

O=c1cc(N2CCOCC2)oc2c(-c3ccccc3)cccc12 [LY294002]
Histone H3 acetylation blocked (densitometric analysis) [1]: 60%

ALTRKLIKKADQKGV (Biotin-ALTRKLIKKADQKGV) [ACLY peptide-2]
binding to PI(4,5)P2 [2]: binds to PI(4,5)P2
